Measurements taken from patent US20260008784A1 (VASTHERA CO., LTD., priority 2022, published 2026).
Like-named read-outs stand apart in the source and are kept apart here. Blank lines part the entries; values can stand above or below the compound they belong to.

Tests used:
[1] = system: yeast thioredoxin (Trx)/yeast Trx reductase (TR); test: Peroxidase activity assay (H2O2 reduction, NADPH oxidation); type: biochemical; settings: 50 μM test compound, 3 μM yeast Trx, 1.5 μM yeast TR, 250 μM NADPH, 1.2 mM H2O2, 30° C.; NADPH oxidized per minute
Description: Hydrogen peroxide (H2O2)-reducing peroxidase activity of compounds in present invention was performed as follows. Peroxyredoxin activity was measured in reaction mixture (200 μL volume) containing 50 mM HEPES buffer (pH 7.0), 1 mM EDTA, 250 μM NADPH, 3 μM yeast thioredoxin (Trx), 1.5 μM yeast Trx reductase (TR), 50 μM test compound, and 1.2 mM H2O2.
Reaction was initiated by adding H2O2 and the decrease in absorbance at 340 nm was measured using Agilent UV8453 spectrophotometry (Hewlett Packard, USA) at 30° C. for 12 min. Initial reaction rate is the amount of NADPH oxidized per minute calculated from slope of the linear part of curve.
The H2O2-reducing peroxidase activity of the test compounds in present invention was measured in a reaction mixture containing thioredoxin (Trx)/thioredoxin reductase (TR), respectively.

[2] = Measurement of redox potential (DTT redox buffers, HPLC); type: physicochemical; settings: DTT(Red)/DTT(Ox) redox buffers, 3 h, 30° C., 50% reduction of test compound
Description: A test compound (10 mM) was diluted 20-fold with each redox buffer solution and incubated for 3 h in a 30° C. water bath. Then, compounds were analyzed by HPLC. The area of peaks corresponding to the oxidized and reduced forms of test compound based on specific retention time was calculated and plotted as percent of total peak area against the Nernst equation value (mV) at x-axis. The Nernst equation value corresponding to 50% reduction of test compound was set as the midpoint redox potential value for test compound.
The redox potential values of the test compounds were analyzed based on the potential values established in redox buffer solutions where reduced and oxidized DTT are mixed at various ratios.

hepatocytes = test: Cytotoxicity test, liver cell; settings: read-out: Cell cytotoxicity (CC50) Liver cell; concentration corresponding to 50% cell viability
Description: (§6) Cytotoxicity tests were performed against vascular endothelial cells, vascular smooth muscle cells and hepatocytes. After treatment with ascending concentrations of each compound, the concentration of test compound corresponding to 50% cell viability (CC50) was measured.

[3] = system: human aortic endothelial cells (HAEC); test: Cytotoxicity assay (WST-1), endothelial cell; settings: read-out: Cell cytotoxicity (CC50) Endothelial cell; 24 h, concentration corresponding to 50% cell viability
Description: (§7) For cytotoxicity analysis, human aortic endothelial cells (HAEC) and smooth muscle cells (HASMC) were seeded in a 96-well culture plate at density of 4000 cells/well in a final volume of 100 μL. Cells were cultured for 24 h and serum-starved for an additional 18 h. Test compounds were serially diluted with EBM-2 culture medium, added to the plate at 100 μL/well, and further incubated for 24 h. The number of viable cells was measured using the WST-1 cell viability assay kit (Roche Diagnostics, USA). Cell number was expressed as absorbance values at 450 nm after subtracting the turbidity value at 600 nm. The absorbance values from three replicate wells were averaged.
(§8) After treatment with ascending concentrations of each compound, the concentration of test compound corresponding to 50% cell viability (CC50) was measured.

[4] = system: human aortic smooth muscle cells (HASMC); test: Cytotoxicity assay (WST-1), smooth muscle cell; settings: read-out: Cell cytotoxicity (CC50) Smooth muscle cell; 24 h, concentration corresponding to 50% cell viability
Description: as §7, §8

in vitro [5] = settings: human
Description: as §7, §8

in vitro [6] = test: in vitro
Description: as §6

[7] = Cytotoxicity assay (WST-1), smooth muscle cell; settings: human, human aortic smooth muscle cells (HASMC)
Description: as §7, §8

[8] = Cytotoxicity test, liver cell; settings: hepatocytes
Description: as §6

[9] = Cytotoxicity assay (WST-1), endothelial cell; settings: human, human aortic endothelial cells (HAEC)
Description: as §7, §8

[10] = system: Tyr 857 phosphorylation of PDGF receptor-β (PDGFRβ) in HASMC; test: Immunoblot of PDGF-mediated signaling in PrxII knock-down HASMC; type: cell-based, human; settings: HASMC depleted of PrxII expression, FIG. 2
Description: (§1) Cells were quickly washed in ice-cold phosphate-buffered saline (PBS) and lysed in extraction buffer containing 20 mM Hepes (pH 7.0), 1% Triton X-100, 150 mM NaCl, 10% glycerol, 1 mM EDTA, 2 mM EGTA, and 1 mM DTT, 5 mM Na3VO4, 5 mM NaF, 1 mM AEBSF, aprotinin (5 μg/mL), and leupeptin (5 μg/mL). After cen-trifugation at 12,000×g, the clarified cell extracts were used for immunoblotting. For re-blotting, the immunoblots were retrieved in a solution of 67 mM Tris (pH 6.7), 2% SDS, and 100 mM 2-mercaptoethanol at 60° C. for 30 min to remove antibodies and rinsed three times with a Tris-buffered saline (TBS) solution containing 1% Triton X-100. The retrieved membranes were subjected to new immunoblotting.
In human aortic smooth muscle cell (HASMC) and human pulmonary artery smooth muscle cell (PASMC) in which PrxII was knocked out by transfecting the PrxII siRNA, the ability of test compounds to replace the cellular function of PrxII was evaluated. That is, the efficacy of the new compounds was verified in terms of signaling pathways induced by PDGF that regulates the growth and migration of vascular smooth muscle cells in the aorta and pulmonary artery. Activation of PDGF-induced signaling pathway was analyzed by an immunoblot method using an antibody that specifically recognizes phosphorylation of Tyr 857, which is a major phosphorylation site on PDGF receptor (PDGFRβ).

in vitro [11] = settings: human; remark: listed apart in the source
Description: as §7, §8

[12] = system: Tyr 1175 phosphorylation of VEGF receptor-2 (VEGFR2) in HAEC; test: Immunoblot of VEGF-mediated signaling in PrxII knock-down HAEC; type: cell-based, human; settings: HAECs depleted of PrxII expression, FIG. 5
Description: as §1
In human aortic endothelial cell (HAEC) and human pulmonary artery endothelial cell (PAEC) in which PrxII was knocked out by transfecting the PrxII siRNA, the ability of test compounds to replace the cellular function of PrxII was evaluated. That is, the efficacy of the new compounds was verified in terms of signaling pathways induced by VEGF that regulates the growth and migration of vascular endothelial cells in the aorta and pulmonary artery. Activation of VEGF-induced signaling pathway was analyzed by an immunoblot method using an antibody that specifically recognizes phosphorylation of Tyr 1175, which is a major phosphorylation site on VEGF receptor-2 (VEGFR2).

[13] = system: human aortic smooth muscle cell (HASMC); test: PDGF-induced proliferation assay, HASMC (PrxII siRNA); type: cell-based; settings: for Degree of HASMC proliferation: PDGF-BB 25 ng/mL, percent of untreated control
Description: (§2) HASMCs and PASMCs were transfected with a PrxII-specific siRNA using RNAi MAX transfection reagent according to manufacturer's protocol. After 24 hours, transfected cells (3,000 cells/well) were seeded in a 96-well culture plate. At 12 h after seeding, cells were serum-starved for additional 18 h in SmBM basal medium containing 0.5% FBS. Test compounds were serially diluted with the same basal medium containing 0.5% FBS, added to the cells ([…]), and incubated for 2 h. After treatment, cells were placed in fresh SmBM medium containing 0.5% FBS and PDGF-BB (25 ng/mL) for growth factor stimulation and further cultured for 24 h.
(§3) The degree of cell proliferation was measured using the Cell Titer-GLO kit ([…]). Data are the percent of luminescence intensity averaged from three replicate wells versus that of untreated control group.
(§4) In human aortic smooth muscle cell (HASMC) and human pulmonary artery smooth muscle cell (PASMC) in which PrxII was knocked out by transfecting the PrxII siRNA, the ability of test compounds to inhibit the PDGF-induced proliferation of vascular smooth muscle cells was evaluated. In Table 6, the degree of proliferation in the compound-treated groups is expressed as percent of the degree of proliferation in untreated control group. The concentrations of test compounds corresponding to 50% growth inhibition (IC50) is also listed.

[14] = system: human pulmonary artery smooth muscle cell (PASMC); test: PDGF-induced proliferation assay, PASMC (PrxII siRNA); type: cell-based; settings: for Degree of PASMC proliferation: PDGF-BB 25 ng/mL, percent of untreated control
Description: as §2, §3, §4

[15] = system: human aortic endothelial cell (HAEC); test: VEGF-induced proliferation assay, HAEC (PrxII siRNA); type: cell-based; settings: for Degree of HAEC proliferation: VEGF-A 25 ng/mL, percent of untreated control
Description: as §2, with “HAECs” for “HASMCs”, “PAECs” for “PASMCs”, “EBM” for “SmBM”, “VEGF-A” for “PDGF-BB”
as §3
(§5) In human aortic endothelial cell (HAEC) and human pulmonary artery endothelial cell (PAEC) in which PrxII was knocked out by transfecting the PrxII siRNA, the ability of test compounds to augment the VEGF-induced proliferation of vascular endothelial cells was evaluated. In Table 7, the degree of proliferation in the compound-treated groups is expressed as percent of the degree of proliferation in untreated control group. The effective concentrations of test compounds increasing cell proliferation by 50% (EC50) is also listed.

[16] = system: human pulmonary artery endothelial cell (PAEC); test: VEGF-induced proliferation assay, PAEC (PrxII siRNA); type: cell-based; settings: for Degree of PAEC proliferation: VEGF-A 25 ng/mL, percent of untreated control
Description: as §2, with “HAECs” for “HASMCs”, “PAECs” for “PASMCs”, “EBM” for “SmBM”, “VEGF-A” for “PDGF-BB”
as §3, §5

[17] = reference potential values of Trx and GSH for comparison; cited from earlier work
[18] = Homo sapiens, Endothelial cell, effective concentration increasing cell proliferation by 50%, VEGF-stimulated

Compound: O=C1C2CSSC3(CCCN13)C(=O)N2Cc1ccccc1 (stereo not drawn) [Compound 7, 11-benzyltetrahydro-5H,7H-4,9a-(epiminomethano)pyrrolo[2,1-c][1,2,4]dithiazepine-5,10-dione]
Peroxidase activity for H2O2 reduction [1]: 3.83 nmol/min
Midpoint redox potential (E m) [2]: −300.98 mV
CC50 (hepatocytes): > 500 µM
CC50 [3]: > 500 µM
CC50 [4]: > 500 µM

Compound: Cc1cccc(CN2C(=O)C3(C)SSCC2C(=O)N3C)n1 (stereo not drawn) [Compound 12, 1,8-dimethyl-6-((6-methylpyridin-2-yl)methyl)-2,3-dithia-6,8-diazabicyclo[3.2.2]nonane-7,9-dione]
Peroxidase activity for H2O2 reduction [1]: 4.94 nmol/min
CC50 (in vitro [5]): > 500 µM
CC50 (in vitro [6]): > 500 µM

Compound: CN1C(=O)C2CSSC1(C)C(=O)N2Cc1cnn(C)c1 (stereo not drawn) [Compound 13, 1,8-dimethyl-6-((1-methyl-1H-pyrazol-4-yl)methyl)-2,3-dithia-6,8-diazabicyclo[3.2.2]nonane-7,9-dione]
Peroxidase activity for H2O2 reduction [1]: 4.78 nmol/min
CC50 (in vitro [5]): > 500 µM
CC50 (in vitro [6]): > 500 µM

Peroxidase activity for H2O2 reduction [1]: 4.78 nmol/min
Compound: CN1C(=O)C2CSSC1(C)C(=O)N2Cc1cccs1 (stereo not drawn) [Compound 14, 1,8-dimethyl-6-(thiophen-2-ylmethyl)-2,3-dithia-6,8-diazabicyclo[3.2.2]nonane-7,9-dione]
CC50 at 24 h [7]: > 500 µM

Compound: CN1C(=O)C2CSSC1(C)C(=O)N2Cc1nc2ccccc2s1 (stereo not drawn) [Compound 15, 6-(benzo[d]thiazol-2-ylmethyl)-1,8-dimethyl-2,3-dithia-6,8-diazabicyclo[3.2.2]nonane-7,9-dione]
CC50 [8]: 157 µM
CC50 at 24 h [9]: 114 µM
CC50 at 24 h [7]: 98.5 µM

Compound: CN1C(=O)C2(Cc3ccccc3)SSCC1C(=O)N2C (stereo not drawn) [Compound 19, 1-benzyl-6,8-dimethyl-2,3-dithia-6,8-diazabicyclo[3.2.2]nonane-7,9-dione]
Peroxidase activity for H2O2 reduction [1]: 5.69 nmol/min
Effect on phosphorylation of Tyr 857 on PDGFR [10]: strongly abolish the phosphorylation
CC50 (in vitro [5]): > 500 µM
CC50 (in vitro [11]): > 500 µM
CC50 (in vitro [6]): > 500 µM

Compound: CN1CCN2C(=O)C3CSSC2(C1)C(=O)N3C (stereo not drawn) [Compound 23]
Peroxidase activity for H2O2 reduction [1]: 8.81 nmol/min
Effect on phosphorylation of Tyr 857 on PDGFR [10]: strongly abolish the phosphorylation
Effect on phosphorylation of Tyr 1175 on VEGFR2 [12]: strongly abolish the phosphorylation
Degree of HASMC proliferation ([13]; 2.5 nM): 89.8%
Degree of HASMC proliferation ([13]; 5 nM): 54.3%
Degree of HASMC proliferation ([13]; 10 nM): 34.4%
Degree of HASMC proliferation ([13]; 25 nM): 20.4%
IC50 ([13]; Homo sapiens, HASMC, 50% growth inhibition, PDGF-stimulated): 0.00685 µM
Degree of PASMC proliferation ([14]; 2.5 nM): 70.8%
Degree of PASMC proliferation ([14]; 5 nM): 43.3%
Degree of PASMC proliferation ([14]; 10 nM): 32.9%
Degree of PASMC proliferation ([14]; 25 nM): 14.6%
Degree of PASMC proliferation ([14]; 50 nM): 3.2%
Degree of PASMC proliferation ([14]; 100 nM): 0.0%
IC50 ([14]; Homo sapiens, PASMC, 50% growth inhibition, PDGF-stimulated): 0.00476 µM
Degree of HAEC proliferation ([15]; 2.5 nM): 109.4%
Degree of HAEC proliferation ([15]; 5 nM): 122.6%
Degree of HAEC proliferation ([15]; 10 nM): 161.3%
Degree of HAEC proliferation ([15]; 25 nM): 187.6%
Degree of HAEC proliferation ([15]; 50 nM): 177.1%
Degree of HAEC proliferation ([15]; 100 nM): 133.0%
EC50 [15, 18]: 0.00972 µM
Degree of PAEC proliferation ([16]; 2.5 nM): 109.2%
Degree of PAEC proliferation ([16]; 5 nM): 122.9%
Degree of PAEC proliferation ([16]; 10 nM): 148.3%
Degree of PAEC proliferation ([16]; 25 nM): 173.3%
Degree of PAEC proliferation ([16]; 50 nM): 155.3%
Degree of PAEC proliferation ([16]; 100 nM): 133.9%
EC50 [16, 18]: 0.0052 µM
CC50 (in vitro [5]): > 500 µM
CC50 (in vitro [6]): 123 µM

Compound: N[C@@H](CCC(=O)N[C@@H](CS)C(=O)NCC(=O)O)C(=O)O [GSH]
Midpoint redox potential (E m) [17]: −240 mV

Compound: thioredoxin [Trx]
Midpoint redox potential (E m) [17]: −270 mV
